Results as given in ChEMBL document CHEMBL5126636, “Antibacterial Gilvocarcin-Type Aryl-C-Glycosides from a Soil-Derived Streptomyces Species” (2022).
Values after ≈ are worked out from the molar mass of the structure shown.

Assays:
Format in all cases: functional
Staphylococcus aureus [1] = assay: Antibacterial activity against Staphylococcus aureus ATCC 6538 by broth microdilution method
Staphylococcus aureus [2] = assay: Antibacterial activity against methicillin resistant Staphylococcus aureus ATCC 43300 by broth microdilution method
Pseudomonas aeruginosa = assay: Antibacterial activity against Pseudomonas aeruginosa ATCC 10145 by broth microdilution method
Escherichia coli = assay: Antibacterial activity against Escherichia coli ATCC 11775 by broth microdilution method
Candida albicans = assay: Antibacterial activity against Candida albicans ATCC 10231 by broth microdilution method
Nakaseomyces glabratus = assay: Antibacterial activity against Candida Candida glabrata ATCC 2001 by broth microdilution method

Structure (SMILES)	MIC (Staphylococcus aureus [1]) [µg/mL]	MIC (Staphylococcus aureus [2]) [µg/mL]	MIC (Pseudomonas aeruginosa) [µg/mL]	MIC (Escherichia coli) [µg/mL]	MIC (Candida albicans) [µg/mL]	MIC (Nakaseomyces glabratus) [µg/mL]
C=Cc1cc(OC)c2c(c1)c(=O)oc1c2cc(OC)c2c(O)ccc([C@H]3O[C@@H]([C@@H](C)O)[C@H](O)[C@H]3O)c21	0.5 (≈ 1.01 µM)	0.25 (≈ 0.506 µM)	> 64	> 64	> 64	> 64
C=Cc1cc(OC)c2c(c1)c(=O)oc1c2cc(OC)c2c(OC(C)=O)ccc([C@H]3O[C@@H]([C@@H](C)OC(C)=O)[C@H](OC(C)=O)[C@H]3OC(C)=O)c21	> 64	> 64	> 64	> 64	> 64	> 64
CCc1cc(OC)c2c(c1)c(=O)oc1c2cc(OC)c2c(O)ccc([C@H]3O[C@@H]([C@@H](C)O)[C@H](O)[C@H]3O)c21	> 64	> 64	> 64	> 64	> 64	> 64
COc1cc2c(oc(=O)c3cc(C(O)CCl)cc(OC)c32)c2c([C@H]3O[C@@H]([C@@H](C)O)[C@H](O)[C@H]3O)ccc(O)c12 (stereo partly drawn)	> 64	> 64	> 64	> 64	> 64	> 64
COc1cc2c(oc(=O)c3cc([C@H]4CC[C@H]4c4cc(OC)c5c(c4)c(=O)oc4c5cc(OC)c5c(O)ccc([C@H]6O[C@@H]([C@@H](C)O)[C@H](O)[C@H]6O)c54)cc(OC)c32)c2c([C@H]3O[C@@H]([C@@H](C)O)[C@H](O)[C@H]3O)ccc(O)c12	8 (≈ 8.09 µM)	4 (≈ 4.04 µM)	> 64	> 64	> 64	> 64
COc1cc2c(oc(=O)c3cc(C(C)C)cc(OC)c32)c2c([C@H]3O[C@@H]([C@@H](C)O)[C@H](O)[C@H]3O)ccc(O)c12	> 64	16 (≈ 31.3 µM)	> 64	> 64	> 64	> 64
COc1cc2c(oc(=O)c3cc(C)cc(OC)c32)c2c([C@H]3O[C@@H]([C@@H](C)OC(C)=O)[C@H](OC(C)=O)[C@H]3OC(C)=O)ccc(OC(C)=O)c12	> 64	> 64	> 64	> 64	> 64	> 64
COc1cc2c(oc(=O)c3cc(CO)cc(OC)c32)c2c([C@H]3O[C@@H]([C@@H](C)O)[C@H](O)[C@H]3O)ccc(O)c12	> 64	> 64	> 64	> 64	> 64	> 64
C=Cc1cc(OC)c2c(c1)c(=O)oc1c2cc(OC)c2c(O)ccc([C@@H]3O[C@@H]([C@@H](C)O)[C@H](O)[C@H]3O)c21	64 (≈ 129 µM)	16 (≈ 32.4 µM)	> 64	> 64	> 64	> 64
COc1cc2c(oc(=O)c3cc([C@H](C)OC(C)=O)cc(OC)c32)c2c([C@H]3O[C@@H]([C@@H](C)OC(C)=O)[C@H](OC(C)=O)[C@H]3OC(C)=O)ccc(OC(C)=O)c12	> 64	> 64	> 64	> 64	> 64	> 64
COc1cc2c(oc(=O)c3cc(C(O)CO)cc(OC)c32)c2c([C@H]3O[C@@H]([C@@H](C)O)[C@H](O)[C@H]3O)ccc(O)c12 (stereo partly drawn)	> 64	> 64	> 64	> 64	> 64	> 64
COc1cc2c(oc(=O)c3cc([C@H](C)O)cc(OC)c32)c2c([C@H]3O[C@@H]([C@@H](C)O)[C@H](O)[C@H]3O)ccc(O)c12	> 64	> 64	> 64	> 64	> 64	> 64
COc1cc2c(oc(=O)c3cc(CCO)cc(OC)c32)c2c([C@H]3O[C@@H]([C@@H](C)O)[C@H](O)[C@H]3O)ccc(O)c12	32 (≈ 62.4 µM)	64 (≈ 125 µM)	> 64	> 64	> 64	> 64
C=Cc1cc(OC)c2c(c1)c(=O)oc1c3cccc(O)c3c(OC)cc12	> 64	> 64	> 64	> 64	> 64	> 64
COc1cc2c(oc(=O)c3cc(C)cc(OC)c32)c2c([C@H]3O[C@@H]([C@@H](C)O)[C@H](O)[C@H]3O)ccc(O)c12	1 (≈ 2.07 µM)	2 (≈ 4.15 µM)	> 64	> 64	> 64	> 64
C=Cc1cc(OC)c2c(c1)c(=O)oc1c2cc(OC)c2c(O)ccc([C@@H]3O[C@@H]([C@H](O)CO)[C@H](O)[C@H]3O)c21	16 (≈ 31.3 µM)	8 (≈ 15.7 µM)	> 64	> 64	> 64	> 64
O=C(O)c1cn(C2CC2)c2cc(N3CCNCC3)c(F)cc2c1=O [CIPROFLOXACIN]	0.25 (≈ 0.754 µM)	0.5 (≈ 1.51 µM)				
